Results published in US20230134059A1, “[…] AND METHODS FOR CORRECTING, SLOWING, REDUCING, AND/OR CONTROLLING THE PROGRESSION OF MYOPIA IN CONJUNCTION WITH USE OF ATROPINE OR RELATED COMPOUNDS” (Brien Holden Vision Institute Limited, priority 2020, published 2023).
Read-outs that look alike come from different tables or passages of the source.

Tests used:
eye of a -2.00 D myope = test: Spherical aberration of combined spectacle lens and eye system after Atropine-induced pupil increase; type: in vivo; conditions: pupillary diameter increased from about 3 mm to about 6 mm with use of Atropine
From the text: FIG. 1A illustrates a schematic plot of pupil diameters resulting from use of Atropine, a widely used muscarinic receptor antagonist and a pharmaceutical agent for myopia therapy. […] Considering FIG. 1A, it is observed that use of 0.01% Atropine which to date is the lowest concentration used for treatment of myopia in individuals, increases the photopic pupillary diameter by approximately 1 mm. Increasing the concentration to anywhere from 0.025% to 0.1% Atropine, increases the photopic pupil size from about 2 mm to about 3 mm. With the highest concentration of 0.5% Atropine, the increase in photopic pupil size was largest and at about 3 mm. An increase in pupil size increases aberrations of the eye. […] FIG. 1B illustrates the increase in higher order aberrations from 3rd to 6th order as determined by aberrometry for the myopic eye of an individual who has a distance refractive error of approximately −2.00 D. It is observed that there is a significant increase in aberrations with a larger pupil. An increase in the pupil size may result in a functional decrement in visual performance and one or more unwanted effects such as poorer visual performance, reduced contrast, blurred vision, increased glare and increased photophobia (sensitivity to light). […]

[1] = tested on: myopic children aged 8-10 years; conditions: cited from earlier work
[2] = tested on: eye of individuals treated for myopia; conditions: cited from earlier work
children aged 6-12 years = conditions: concentrations greater than 0.1% Atropine; cited from earlier work
myopia progression = conditions: Atropine eye drops 0.01% to 1.0%; cited from earlier work

**Q.** Which “effective increase of spherical aberration of combined spectacle lens and eye system” value (eye of a -2.00 D myope) does the source give for `CN1[C@@H]2CC[C@H]1C[C@@H](OC(=O)C(CO)c1ccccc1)C2` (some centres unmarked) [Atropine] here?
**A.** Its value is “about +0.50 D”.

**Q.** And the “request photochromic progressive lenses, % of the time” value ([1]; atropine 0.01%)?
**A.** The value was 6%.

**Q.** What about the “request photochromic progressive lenses, % of the time” value ([1]; atropine 0.1%) of the same compound?
**A.** Its value is 61%.

**Q.** What about the “request photochromic progressive lenses, % of the time” value ([1]; atropine 0.5%) of the same compound?
**A.** Its value is 70%.

**Q.** And the “increase in photopic pupillary diameter” value ([2]; 0.01% Atropine)?
**A.** Its value is “approximately 1 mm”.

**Q.** And the “increase in photopic pupil size” value ([2]; 0.5% Atropine (highest concentration))?
**A.** The value was “about 3 mm”.

**Q.** What about the “reduction in amplitude of accommodation” value (children aged 6-12 years) of the same compound?
**A.** The value was “more than half”.

**Q.** And the “efficacy in slowing myopia, concentration dependent response” value (myopia progression)?
**A.** The value was “the higher the concentration, the greater the efficacy”.
